# Data from patent publication US20240398814A1, “KRAS INHIBITOR AND HDAC INHIBITOR COMBINATION FOR THE TREATMENT OF CANCER” (Northwestern University, priority 2023, published 2024).
# How the values were obtained:
# KL LJE1 cells [1] = assay: RNA-seq of drug-treated KL LJE1 cells (TIER genes); assay type: cell-based, mouse; conditions: adj. p-value<0.05, 10 nM trametinib
# Description: All cell lines were incubated at 37° C. and were maintained in an atmosphere containing 5% CO2. Cells were tested for Mycoplasma (Lonza) using manufacturer's conditions and were deemed negative. Cells were grown in Dulbecco's modified Eagles medium (DMEM) plus 10% fetal bovine serum (Gibco) and were continuously maintained under antibiotic selection for stable cell lines. Proliferation assays were performed by plating 2×10^3 cells per well of a 6-well plate, and cells were counted 5 days post-plating. […]
# mRNA was collected from cells harvested within 2 passages post-thaw. mRNA was isolated using the Quick-RNA Miniprep kit (Zymo Research), including DNase treatment. RNA integrity (RIN) numbers were determined using the Agilent TapeStation prior to library preparation. mRNA-seq libraries were prepared using the TruSeq RNA library preparation kit (version 2), according to the manufacturer's instructions (Illumina). Libraries were quantified, pooled, and sequenced by single-end 50 base pairs using the Illumina HiSeq 2500 platform at the Salk Next-Generation Sequencing Core. […]
# Sequenced reads were quality-tested using the online FASTQC tool (bioinformatics.babraham.ac.uk/projects/fastqc) and aligned to the mouse mm10 genome using the STAR aligner version 2.4.0k (Ref. 81; incorporated by reference in its entirety). […]
# KL LJE1 cells [2] = assay: Western blot and qRT-PCR of FGFR1, NKX2-1 and ERK phosphorylation in drug-treated KL LJE1 cells; assay type: cell-based, mouse
# Description: (§1) All cell lines were incubated at 37° C. and were maintained in an atmosphere containing 5% CO2. Cells were tested for Mycoplasma (Lonza) using manufacturer's conditions and were deemed negative. Cells were grown in Dulbecco's modified Eagles medium (DMEM) plus 10% fetal bovine serum (Gibco) and were continuously maintained under antibiotic selection for stable cell lines. Proliferation assays were performed by plating 2×10^3 cells per well of a 6-well plate, and cells were counted 5 days post-plating. Drug treatments were carried out using the following doses: entinostat 1 uM or 2 uM, RGFP966 10uM, TSA 0.5 uM, BRD3308 5 uM, trametinib 5 nM, 10 nM, and 25 nM, and MRTX1133 10 nM, 25 nM, and 50 nM, as indicated for the indicated treatment lengths. Media was changed and fresh drug added every 2 days.
# (§2) mRNA was prepared using the Quick-RNA Miniprep kit (Zymo Research), including DNase treatment. cDNA was synthesized from 2 μg of RNA using SuperScript III (Life Technologies), and qPCR was carried out with diluted cDNA, appropriate primers, and SYBR Green PCR master mix (ThermoFisher Scientific) using a C1000 Thermal Cycler (BioRad). Relative mRNA levels were calculated using the delta Ct method, using Tbp as an internal control.
# (§3) Protein lysates in CST buffer (20 mM Tris pH 7.5, 150 mM NaCl, 1% Triton X-100, 50 mM NaF, 1 mM EDTA, 1 mM EGTA, 2.5 mM PyroPhosphate, 2 mM beta-glycerol-phosphate, 1 mM orthovanadate, 0.01 mM Calyculan A) with protease inhibitors were equilibrated for protein levels using a BCA protein assay kit (Pierce), resolved on 8% SDS-PAGE gels, and transferred to membrane. Membranes were blocked in milk, incubated o/n at 4C in diluted primary antibody, washed with TBS-T, incubated 1 hr in secondary antibody diluted in TBS-T plus milk, washed in TBS-T, and developed using SuperSignal ECL. Secondary antibodies: anti-rabbit (Millipore AP132P) and anti-mouse (Millipore AP124P). Nuclear fractions were isolated using a NE-PER nuclear and cytoplasmic extraction kit (Thermofisher) under manufacturers conditions.
# human lung cancer cells = assay: FGFR1 resistance mechanism in human lung cancer cells; assay type: cell-based; conditions: 6 days of treatment
# KL LJE1 cells [3] = assay: qRT-PCR of chemokine (HRCG) gene expression in KL LJE1 cells; assay type: cell-based, mouse
# Description: as §1, §2
# A549 cells = assay: qRT-PCR of chemokine gene expression in A549 cells; assay type: cell-based, human; conditions: 2 uM entinostat 3 days, 5 uM BRD3308 4 days
# Description: as §1, §2
# NF-kB/p65 protein = assay: Western blot of p65 nuclear localisation and K310 acetylation in KL LJE1 cells; assay type: cell-based, mouse; conditions: for quantity of p65 protein in the nuclear fraction: Western blot, 6 hr, 2 uM entinostat, 10uM RGFP966, 0.5 uM TSA
# Description: as §3
# p65-expressing DNA constructs RelA-Flag (22) (Addgene 20012) and GFP-RelA (21) (Addgene 23255) were transiently transfected into KL LJE1 cells using Lipofectamine 2000 (Thermo Fisher Scientific) according to the manufacturer's protocol. Cells were treated with drug as indicated 24 hours after transfection.
# H460 cells = assay: qRT-PCR of chemokine gene expression in H460 cells; assay type: cell-based, human; conditions: 1 uM entinostat 4 days, 5 uM BRD3308 4 days
# Description: as §1, §2
# [4] = HDAC3 KO cells, 5 days, MRTX1133 10, 25, or 50 nM, trametinib 5, 10, or 25 nM
structure (smiles),measurement,setting,value
CC(=O)Nc1cccc(-n2c(=O)n(C3CC3)c(=O)c3c(Nc4ccc(I)cc4F)n(C)c(=O)c(C)c32)c1 [trametinib],genes upregulated upon 13 day trametinib compared to vehicle,KL LJE1 cells [1],"2,141 genes"
C#Cc1c(F)ccc2cc(O)cc(-c3ncc4c(N5CC6CCC(C5)N6)nc(OC[C@@]56CCCN5C[C@H](F)C6)nc4c3F)c12 [MRTX1133],FGFR1 resistance mechanism,KL LJE1 cells [2]; 1 day of treatment,induces the FGFR1 resistance mechanism in an HDAC3-dependent manner
same,FGFR1 resistance mechanism,KL LJE1 cells [2]; 5 days of treatment,induces the FGFR1 resistance mechanism in an HDAC3-dependent manner
same,ERK phosphorylation at Thr202/Tyr204,"KL LJE1 cells [2]; Western blot, 24 hr, 10 nM, 25 nM or 50 nM MRTX1133",on-target Kras inhibition
same,FGFR1 resistance mechanism,human lung cancer cells,induces the FGFR1 resistance mechanism
same,"HRCG expression, drug alone (NT cells)","KL LJE1 cells [3]; 5 days, MRTX1133 10, 25, or 50 nM",did not impact the expression of these genes
same,"HDAC3 KO-dependent induction of immunosuppressive HRCGs (Cxc15, Cxc1, Cxc12, Cxc13)",KL LJE1 cells [3]; [4],reversed the HDAC3-dependent induction
same,"HDAC3 KO-dependent induction of immunosurveillance-related HRCGs (Cc15, Cxc110)",KL LJE1 cells [3]; [4],expression was maintained in the presence of MRTX1133
CC(=O)Nc1ccc(C(=O)Nc2ccc(F)cc2N)cc1 [BRD3308],chemokine (SASP) gene expression,A549 cells,induced the expression of these genes
same,gene expression induction in NT versus p65 KO cells,"KL LJE1 cells [3]; 3 days, 1 uM entinostat or 5 uM BRD3308",p65 facilitates maximal gene expression induction
same,acetylation of wildtype p65 at K310 (versus K310A mutant),"NF-kB/p65 protein; 5 hours, 1 uM entinostat or 5 uM BRD3308",induce acetylation of wildtype p65 at K310
same,chemokine (SASP) gene expression,H460 cells,induced the expression of these genes
Nc1cc(F)ccc1NC(=O)/C=C/c1cnn(C/C=C/c2ccccc2)c1 [RGFP966],chemokine (SASP) gene expression,"KL LJE1 cells [3]; 72 hr, 2 uM entinostat or 10uM RGFP966",robust induction of gene expression
same,quantity of p65 protein in the nuclear fraction,NF-kB/p65 protein,increased the quantity of p65 protein in the nuclear fraction
"CC(/C=C/C(=O)NO)=C\[C@@H](C)C(=O)c1ccc(N(C)C)cc1 [TSA, trichostatin a]",quantity of p65 protein in the nuclear fraction,NF-kB/p65 protein,increased the quantity of p65 protein in the nuclear fraction
